Reference: patent US10494376B2, “Tetrahydroisoquinoline derived PRMT5-inhibitors” (CTXT PTY LTD, priority 2014, dated 2019)
Structures can show the parent of a compound that is named as a salt.

Target: Full-length PRMT5 enzyme (NCBI Reference sequence NP_006100.2) co-expressed with His6-MEP50 (Homo sapiens (Human), UniProt O14744)
Experiment: Revised PRMT5 Biochemical Assay
Conditions: 1 μM peptide substrate, 1 μM S-Adenosyl methionine, 4 hours at 37 degree Celsius, Transcreener EPIGEN fluorescence polarisation
Procedure: Compounds of the invention may be tested for in vitro activity in the following assay: A histone H4 derived peptide is used as substrate (amino acid sequence: […]N H2). Full-length PRMT5 enzyme (NCBI Reference sequence NP_006100.2) was co-expressed with His6-MEP50 in insect cells and purified via Nickel immobilized metal affinity and gel filtration chromatography (“the enzyme”).
The 6 μL reactions are run in Greiner brand black 384-well low volume assay plates. All reactions contained assay buffer (phosphate buffered saline, 0.01% (v/v) Tween-20, 0.01% (w/v) albumin from chicken egg white, 1 mM Dithiothreitol, 1 μM peptide substrate, 1 μM S-Adenosyl methionine, and 15 ng/reaction enzyme, with the enzyme being omitted from negative control reactions. Compounds were added in a volume of 100 nL from dilution series prepared in DMSO, positive and negative control reactions receiving the same volume DMSO without compound. The plates were sealed with adhesive seals and incubated for 4 hours at 37 degree Celsius. Reaction progress was measured using the Transcreener™ EPIGEN methyltransferase assay (BellBrook Labs, Madison, Wis.) as recommended by the manufacturer. To each reaction 2 μL detection mix were added, containing coupling enzymes, fluorescence polarisation tracer, and AMP antibody. Plates were incubated for 90 minutes before being read on a PerkinElmer EnVision™ plate reader in fluorescence polarisation mode. IC50 values were obtained from the raw readings by calculating percent inhibition (%1) for each reaction relative to controls on the same plate (% I=(I−CN)/(CP−CN) where CN/CP are the averages of the negative/positive reactions, respectively), then fitting the %1 data vs. compound concentration [I] to % I=(A+((B−A)/(1+((C/[I])^D)))) where A is the lower asymptote, B is the upper asymptote, C is the IC50 value, and D is the slope.

Chain of Full-length PRMT5 enzyme (NCBI Reference sequence NP_006100.2) co-expressed with His6-MEP50 (O14744 whole entry): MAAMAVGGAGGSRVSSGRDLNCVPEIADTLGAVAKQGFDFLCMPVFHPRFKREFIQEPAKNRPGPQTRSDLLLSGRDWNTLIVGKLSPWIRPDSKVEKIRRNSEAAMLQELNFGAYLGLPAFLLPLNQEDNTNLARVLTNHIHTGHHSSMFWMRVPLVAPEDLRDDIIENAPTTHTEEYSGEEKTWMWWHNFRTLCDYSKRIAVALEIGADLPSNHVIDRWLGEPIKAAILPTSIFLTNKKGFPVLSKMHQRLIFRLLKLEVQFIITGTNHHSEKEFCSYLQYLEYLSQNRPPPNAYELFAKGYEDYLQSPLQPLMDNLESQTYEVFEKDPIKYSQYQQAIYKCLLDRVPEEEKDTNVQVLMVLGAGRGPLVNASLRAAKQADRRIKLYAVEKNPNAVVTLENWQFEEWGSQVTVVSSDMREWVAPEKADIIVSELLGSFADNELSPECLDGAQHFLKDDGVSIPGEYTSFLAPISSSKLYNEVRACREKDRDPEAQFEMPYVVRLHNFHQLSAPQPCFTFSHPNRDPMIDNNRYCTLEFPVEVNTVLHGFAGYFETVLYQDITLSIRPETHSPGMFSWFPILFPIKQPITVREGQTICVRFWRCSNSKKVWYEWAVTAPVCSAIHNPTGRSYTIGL
Chain of Full-length PRMT5 enzyme (NCBI Reference sequence NP_006100.2) co-expressed with His6-MEP50 (Q9BQA1 whole entry partner): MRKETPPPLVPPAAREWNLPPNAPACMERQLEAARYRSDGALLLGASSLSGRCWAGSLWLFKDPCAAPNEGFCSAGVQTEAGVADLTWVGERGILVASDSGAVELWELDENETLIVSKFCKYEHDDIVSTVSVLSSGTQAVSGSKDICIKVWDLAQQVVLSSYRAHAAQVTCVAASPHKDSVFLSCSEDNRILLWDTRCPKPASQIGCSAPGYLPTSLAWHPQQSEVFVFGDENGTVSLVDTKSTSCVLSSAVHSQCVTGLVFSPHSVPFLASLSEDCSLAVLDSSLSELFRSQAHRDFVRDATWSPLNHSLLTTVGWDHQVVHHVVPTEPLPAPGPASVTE

Row | SMILES | IC50 [nM]
1 | CC(=O)N1CCC(NC(=O)c2ccc(C(=O)NC[C@@H](O)[C@@H]3Cc4ccccc4CN3)cc2)CC1 [Example 35, N^1-(1-Acetylpiperidin-4-yl)-N^4-((R)-2-hydroxy-2-((S)-1,2,3,4-tetrahydroisoquinolin-3-yl)ethyl)terephthalamide] | 152
2 | COC(=O)N1CCC(Oc2cncc(C(=O)NC[C@@H](O)[C@@H]3Cc4ccccc4CN3)c2)CC1 [Example 118, Methyl 4-((5-(((R)-2-hydroxy-2-((S)-1,2,3,4-tetrahydroisoquinolin-3-yl)ethyl)carbamoyl)pyridin-3-yl)oxy)piperidine-1-carboxylate dihydrochloride] | 502
3 | O=C(NC[C@@H](O)[C@@H]1Cc2ccccc2CN1)c1ccccc1C(F)F [Example 23, 2-(Difluoromethyl)-N-((R)-2-hydroxy-2-((S)-1,2,3,4-tetrahydroisoquinolin-3-yl)ethyl)benzamide] | 5140
4 | O=C(NC[C@@H](O)[C@@H]1Cc2ccccc2CN1)c1ccc(C(=O)NC2CCS(=O)(=O)CC2)cc1 [Example 95, N^1-(1,1-Dioxidotetrahydro-2H-thiopyran-4-yl)-N^4-((R)-2-hydroxy-2-((S)-1,2,3,4-tetrahydroisoquinolin-3-yl)ethyl)terephthalamide] | 9710
5 | CC(C)OC(=O)N1CCC(Oc2cc(C(=O)NC[C@@H](O)[C@@H]3Cc4ccccc4CN3)ccn2)CC1 [Example 61, Isopropyl 4-((4-(((R)-2-hydroxy-2-((S)-1,2,3,4-tetrahydroisoquinolin-3-yl)ethyl)carbamoyl)pyridin-2-yl)oxy)piperidine-1-carboxylate] | 104
6 | COC(=O)N1CCN(C(=O)c2ccc(C(=O)NC[C@@H](O)[C@@H]3Cc4ccccc4CN3)cc2)CC1 [Example 67, Methyl 4-(4-(((R)-2-hydroxy-2-((S)-1,2,3,4-tetrahydroisoquinolin-3-yl)ethyl)carbamoyl)benzoyl)piperazine-1-carboxylate] | 307
7 | CC(C)COC(=O)N1CCC(Oc2cc(C(=O)NC[C@@H](O)[C@@H]3Cc4ccccc4CN3)ccn2)CC1 [Example 62, Isobutyl 4-((4-(((R)-2-hydroxy-2-((S)-1,2,3,4-tetrahydroisoquinolin-3-yl)ethyl)carbamoyl)pyridin-2-yl)oxy)piperidine-1-carboxylate] | 102
8 | O=C(NCc1ccccn1)c1ccc(C(=O)NC[C@@H](O)[C@@H]2Cc3ccccc3CN2)cc1 [Example 56, N^1-((R)-2-Hydroxy-2-((S)-1,2,3,4-tetrahydroisoquinolin-3-yl)ethyl)-N^4-(pyridin-2-ylmethly)terephthalamide] | 383
9 | O=C(NC[C@@H](O)[C@@H]1Cc2ccccc2CN1)c1cc(NC2COC2)ncn1 [Example 107, N—((R)-2-Hydroxy-2-((S)-1,2,3,4-tetrahydroisoquinolin-3-yl)ethyl)-6-(oxetan-3-ylamino)pyrimidine-4-carboxamide] | 546
10 | CC(=O)N1CCC(Oc2ccccc2C(=O)NC[C@@H](O)[C@@H]2Cc3ccccc3CN2)CC1 [Example 68, 2-((1-Acetylpiperidin-4-yl)oxy)-N-((R)-2-hydroxy-2-((S)-1,2,3,4-tetrahydroisoquinolin-3-yl)ethyl)benzamide] | 2260
11 | O=C(NC[C@@H](O)[C@@H]1Cc2ccccc2CN1)c1ccc(OCC2CC2)nc1 [Example 58, 6-(Cyclopropylmethoxy)-N-((R)-2-hydroxy-2-((S)-1,2,3,4-tetrahydroisoquinolin-3-yl)ethyl)nicotinamide] | 657
12 | O=C(NC[C@@H](O)[C@@H]1Cc2ccccc2CN1)c1ccnc(OCC(F)(F)F)c1 [Example 63, N-((R)-2-hydroxy-2-((S)-1,2,3,4-tetrahydroisoquinolin-3-yl)ethyl)-2-(2,2,2-trifluoroethoxy)isonicotinamide] | 245
13 | O=C(NC[C@@H](O)[C@@H]1Cc2ccccc2CN1)c1cccc(-c2ccnnc2)c1 [Example 12, N-((R)-2-Hydroxy-2-((S)-1,2,3,4-tetrahydroisoquinolin-3-yl)ethyl)-3-(pyridazin-4-yl)benzamide] | 663
14 | O=C(NC[C@@H](O)[C@@H]1Cc2ccccc2CN1)c1ccc(C(=O)N2C3CCC2CC(O)C3)cc1 (stereo partly drawn) [Example 42, N-((R)-2-Hydroxy-2-((S)-1,2,3,4-tetrahydroisoquinolin-3-yl)ethyl)-4-(3-hydroxy-8-azabicyclo[3.2.1]octane-8-carbonyl)benzamide] | 212
15 | O=C(NC[C@@H](O)[C@@H]1Cc2ccccc2CN1)c1ccccc1Cl [Example 4, 2-Chloro-N-((R)-2-hydroxy-2-((S)-1,2,3,4-tetrahydroisoquinolin-3-yl)ethyl)benzamide] | 8790
16 | O=C(NC[C@@H](O)[C@@H]1Cc2ccccc2CN1)c1ccc(Cl)cc1 [Example 48, 4-Chloro-N—((R)-2-hydroxy-2-((S)-1,2,3,4-tetrahydroisoquinolin-3-yl)ethyl)benzamide] | 192
17 | Cc1nnc(-c2ccc(C(=O)NC[C@@H](O)[C@@H]3Cc4ccccc4CN3)cc2)o1 [Example 25, N-((R)-2-Hydroxy-2-((S)-1,2,3,4-tetrahydroisoquinolin-3-yl)ethyl)-4-(5-methyl-1,3,4-oxadiazol-2-yl)benzamide] | 1700
18 | O=C(NC[C@@H](O)[C@@H]1Cc2ccccc2CN1)c1ccc(C(=O)N2C3CCC2CC3)cc1 [Example 91, 4-(7-Azabicyclo[2.2.1]heptane-7-carbonyl)-N-((R)-2-hydroxy-2-((S)-1,2,3,4-tetrahydroisoquinolin-3-yl)ethyl)benzamide] | 123
19 | O=C(NCC1CCOCC1)c1ccc(C(=O)NC[C@@H](O)[C@@H]2Cc3ccccc3CN2)cc1 [Example 31, N^1-((R)-2-Hydroxy-2-((S)-1,2,3,4-tetrahydroisoquinolin-3-yl)ethyl)-N^4-((tetrahydro-2H-pyran-4-yl)methyl)terephthalamide] | 204
20 | O=C(NC[C@@H](O)[C@@H]1Cc2ccccc2CN1)c1ccc(C(=O)N2CCC(O)CC2)cc1 [Example 45, N-((R)-2-Hydroxy-2-((S)-1,2,3,4-tetrahydroisoquinolin-3-yl)ethyl)-4-(4-hydroxypiperidine-1-carbonyl)benzamide] | 500
21 | O=C(NC[C@@H](O)[C@@H]1Cc2ccccc2CN1)c1ccc(C(=O)NC2CCC(F)(F)CC2)cc1 [Example 44, N^1-(4,4-Difluorocyclohexyl)-N^4-((R)-2-hydroxy-2-((S)-1,2,3,4-tetrahydroisoquinolin-3-yl)ethyl)terephthalamide] | 1240
22 | CCOc1nc(C(=O)N2C3CCC2COC3)ccc1C(=O)NC[C@@H](O)[C@@H]1Cc2ccccc2CN1 [Example 70, 6-(3-Oxa-8-azabicyclo[3.2.1]octane-8-carbonyl)-2-ethoxy-N-((R)-2-hydroxy-2-((S)-1,2,3,4-tetrahydroisoquinolin-3-yl)ethyl)nicotinamide] | 121
23 | O=C(NC[C@@H](O)[C@@H]1Cc2ccccc2CN1)c1cccc(-c2cncnc2)c1 [Example 18, N-((R)-2-Hydroxy-2-((S)-1,2,3,4-tetrahydroisoquinolin-3-yl)ethyl)-3-(pyrimidin-5-yl)benzamide] | 2100
24 | O=C(NC[C@@H](O)[C@@H]1Cc2ccccc2CN1)c1ccc(CC(=O)N2CCCCC2)nc1 [Example 72, N-((R)-2-Hydroxy-2-((S)-1,2,3,4-tetrahydroisoquinolin-3-yl)ethyl)-6-(2-oxo-2-(piperidin-1-yl)ethyl)nicotinamide dihydrochloride] | 585
25 | O=C(NC[C@H](O)[C@@H]1Cc2ccccc2CN1)c1ccc(C(=O)N2CCOCC2)cc1 [Example 52, N—((S)-2-Hydroxy-2-((S)-1,2,3,4-tetrahydroisoquinolin-3-yl)ethyl)-4-(morpholine-4-carbonyl)benzamide hydrochloride] | 3330
26 | O=C(NC[C@@H](O)[C@@H]1Cc2ccccc2CN1)c1ccc2[nH]nnc2c1 [Example 114, N-((R)-2-Hydroxy-2-((S)-1,2,3,4-tetrahydroisoquinolin-3-yl)ethyl)-1H-benzo[d][1,2,3]triazole-5-carboxamide dihydrochloride] | 5490
27 | CCOc1cc(C(=O)N2C3CCC2COC3)ccc1C(=O)NC[C@@H](O)[C@@H]1Cc2cc(C)ccc2CN1 [Example 125, 4-(3-Oxa-8-azabicyclo[3.2.1]octane-8-carbonyl)-2-ethoxy-N—((R)-2-hydroxy-2-((S)-6-methyl-1,2,3,4-tetrahydroisoquinolin-3-yl)ethyl)benzamide hydrochloride] | 232
28 | O=C(NC[C@@H](O)[C@@H]1Cc2ccccc2CN1)c1csc(-c2ccccc2)n1 [Example 16, N-((R)-2-Hydroxy-2-((S)-1,2,3,4-tetrahydroisoquinolin-3-yl)ethyl)-2-phenylthiazole-4-carboxamide] | 662
29 | COc1cc(C(=O)NC[C@@H](O)[C@@H]2Cc3ccccc3CN2)ccn1 [Example 71, N-((R)-2-Hydroxy-2-((S)-1,2,3,4-tetrahydroisoquinolin-3-yl)ethyl)-2-methoxyisonicotinamide dihydrochloride] | 939
